Literature values, collected in patent US9974685B2, “Drug delivery system and methods of treating open angle glaucoma and ocular hypertension” (Mati Therapeutics, Inc., priority 2011, dated 2018).

How the values were obtained:
[1] = tested on: rabbits; settings: twice-daily ocular instillation, doses up to 50 μg per eye for 52 weeks (100 μg/eye/day)
[2] = tested on: healthy volunteers; settings: 28 healthy volunteers; 1 drop of 50 μg/mL 4 times daily for 2 weeks; resolved spontaneously without cessation of treatment
[3] = tested on: cynomolgus monkeys; settings: doses up to 50 μg/eye twice daily (100 μg/eye/day), 52 weeks, not judged to be deleterious

solubility in organic solvents (acetone, ethanol, ethyl acetate, isopropanol, methanol and octanol): freely soluble
solubility in acetonitrile (acetonitrile): very soluble
solubility in water (water): practically insoluble
Structure (SMILES): CC(C)OC(=O)CCC/C=C\C[C@@H]1[C@@H](CC[C@@H](O)CCc2ccccc2)[C@H](O)C[C@@H]1O [Latanoprost, isopropyl-(Z)-7 [(1R,2R,3R,5S)3,5-dihydroxy-2-[(3R)-3-hydroxy-5-phenylpentyl]cyclopentyl]-5-heptenoate]
adverse effects [1]: no adverse effects
ocular effects during the 4-dose regimen [2]: transient photophobia, cells, and mild flare were common
effects observed [3]: a reversible change in the aspect of the palpebral fissure and a non-reversible increase in iris pigmentation
